Test system: rats with L5 spinal nerve ligation (SNL model)
Assay: Spinal nerve ligation (L5) neuropathic pain model, von Frey filaments, dose range (Example 5)
Format: in vivo, rat
Description: The spinal nerve ligation (SNL) model of neuropathic pain was produced in all rats as described by Kim and Chung (Pain, 50, 355-363, 1992). Briefly, under gaseous anesthesia using halothane (3% for induction and 1.5% for maintenance) in oxygen, the left L5 spinal nerve was exposed by removing the paraspinal muscles and the transverse process of the L6 vertebra. The very proximal portion of the L5 spinal nerve was tightly ligated with 6-0 silk suture. The wounds were closed and anesthesia was discontinued. Rats were kept on a heated blanket until they had completely recovered from anesthesia.
Behavioral tests were conducted in a non-blind fashion. The foot withdrawal threshold to mechanical stimuli applied to the paw (mechanical threshold) was measured, as an indicator of mechanical sensitivity of the affected paw. The foot withdrawal threshold was measured using von Frey filaments. It is generally thought that von Frey filaments are more sensitive than electronic von Frey probes for measuring tactile stimulation. The mechanical thresholds were measured by using the “up-and-down” method (Chaplan et al., J. Neurosci. Methods 53(1):55-63, 1994), following the procedures described in previous studies (Park et al., Pain 87(2):171-179, 2000; Xie et al., J. Pain 2(5):270-278, 2001; Baik et al., J. Pain 4:212-221, 2003). In brief, rats were placed in a transparent plastic box on a metal wire mesh floor. To determine the threshold stiffness required for 50% paw withdrawal, a series of eight von Frey filaments with approximately equal logarithmic incremental (0.22) von Frey values (3.65, 3.87, 4.10, 4.31, 4.52, 4.74, 4.92, and 5.16) were used. Von Frey (VF) values are logarithmically related to gram (g) values (VF=log (10,000×g)). The chosen von Frey values are therefore equivalent to 0.45, 0.74, 1.26, 2.04, 3.31, 5.50, 8.32, and 14.45 in gram value, respectively. Starting with filament 4.31, von Frey filaments were applied perpendicularly to the ventral surface of the proximal part of the third or fourth toe for 2-3 seconds. Whenever a positive response to a stimulus occurred (paw withdrawal), the next smaller von Frey hair was applied. Whenever a negative response occurred, the next larger one was applied. The test was continued until the response of six stimuli after the first change in response had been obtained or the test had reached either end of the spectrum of the von Frey set.
The 50% threshold value was then calculated using Dixon's formula (Dixon, Ann. Rev. Phar. Tox. 20:441-462, 1980): 50% threshold=X+kd, where X is the value of the final von Frey hair used (in log units), k is the tabular value for the pattern of positive/negative responses, and d is the mean difference between stimuli in log units (0.22). In the cases where continuous positive or negative responses were observed all the way out to the end of the stimulus spectrum, values of 3.54 or 5.27 were assigned, respectively, by assuming a value of (−/+) 0.5 for k in these cases (Dixon, supra, 1980). Outcome of behavioral data were expressed as von Frey values (maximum range from 3.54 to 5.27) and plotted in a linear scale.
Data were expressed as the mean±standard errors of mean (SEM). Differences in mechanical thresholds at various times after injections were tested using two-way (time and group factors) analysis of variance (ANOVA), followed by the Duncan's post-hoc test for multiple comparisons. Statistical analyses were done using the SAS® software program (SAS Institute Inc, Cary, N.C.). Two-tailed p-values<0.05 were considered to be significant.
This experiment was conducted on 8 rats in a Latin-square design examining a dose response of OPC-14523. Gabapentin was prepared at 10 mg/ml in 0.5% tragacanth and administered at 100 mg/kg p.o. Behavioral tests were conducted in a blind fashion twice (1 day and 1 hour) before as well as 1 and 4 days after the neuropathic surgery. […] These 8 rats were randomly divided into 6 groups of 1-2 rats. […]

Compound: COc1cccc2c1CCC(=O)N2CCCN1CCN(c2cccc(Cl)c2)CC1 [OPC-14523, 1-[3-[4-(3-chlorophenyl)-1-piperazinyl]propyl]-5-methoxy-3,4-dihydro-2(1H)-quinolone]
- effect on mechanical threshold (10 mg/kg oral): neither vehicle nor OPC-14523 at 10 mg/kg produced significant changes
- effect on mechanical threshold (30 mg/kg oral): statistically significant increase
- level of response compared with gabapentin 100 mg/kg p.o. (30 mg/kg oral): comparable to that of gabapentin
- effect on mechanical threshold (60 mg/kg oral): statistically significant increase
- level of response compared with gabapentin 100 mg/kg p.o. (60 mg/kg oral): comparable to that of gabapentin
- effect on mechanical threshold (100 mg/kg oral): statistically significant increase
- level of mechanical threshold reached (100 mg/kg oral, exceeding the response induced by gabapentin): about the level observed prior to the ligature surgery

— US20070142396A1, “Treatment of pain with 1-[3-[4-(3-chlorophenyl)-1-piperazinyl]propyl]-5-methoxy-3,4-dihydro-2(1H)-quinolone or salt thereof” (Vela Pharmaceuticals, Inc., priority 2005, published 2007)
